Assay results as given in patent US20210400970A1, “COMPOSITIONS COMPRISING PYRIDINE CARBOXYLATE HERBICIDES AND MICROTUBULE ASSEMBLY INHIBITOR HERBICIDES” (priority 2018, published 2021).

What was measured:
Assay type in all cases: in vivo
Conditions in all cases: 20-22 d
[1] = test system: Viola tricolor (wild pansy, VIOTR); test: Greenhouse post-emergence herbicidal effect on wild pansy
Description: (§1) Seeds of the desired test plant species were planted in a 90:10% v/v (volume/volume) mixture of PRO-MIX® BX (Premier Tech Horticulture, Quakertown, Pa., USA) and PROFILE® GREENS GRADE™ (Profile Products LLC, Buffalo Grove, Ill., USA) planting mixture, which typically has a pH of 5.2 to 6.2 and an organic matter content of at least 50 percent, in plastic pots with a surface area of 103.2 square centimeters (cm^2). […] The plants were grown for 7-36 days (d) in a greenhouse with an approximate 14-hour (h) photoperiod which was maintained at about 23° C. during the day and 22° C. during the night. Nutrients and water were added on a regular basis and supplemental lighting was provided with overhead metal halide 1000-Watt lamps as necessary. The plants were employed for testing when they reached the second or third true leaf stage.
(§2) Emulsifiable concentrates of each of each pyridine carboxylate herbicide (Compound A or Compound B) were prepared at 100 grams acid equivalent per liter (g ae/L). The emulsifiable concentrates also included a safener, cloquintocet-mexyl, at 120 grams active ingredient per liter (g ai/L). An aliquot of each emulsifiable concentrate was placed in a 25 mL glass vial and diluted with an aqueous mixture of 1.25% (v/v) ACTIROB® B esterified rapeseed oil (Bayer Crop Science, Research Triangle Park, NC, USA) or MSO® Concentrate with LECI-TECH® methylated soybean oil (Loveland Products, Loveland, Colo., USA) to obtain concentrated stock solutions at the highest application rate for each herbicide, based upon a 12 milliliter (mL) application volume at a rate of 187 liters per hectare (L/ha). The concentrated stock solutions were further diluted with an aqueous mixture of 1.25% v/v ACTIROB® B or MSO® Concentrate with LECI-TECH® to obtain stock solutions at reduced application rates for each herbicide. Spray solutions of the herbicide combinations (Compound A or Compound B plus the MAI herbicide) were prepared by adding weighed amounts or aliquots of the MAI herbicide to the stock solutions of Compound A or Compound B to form 12-mL spray solutions in two-way combinations.
(§3) The spray solutions were applied to the plant material with an overhead Mandel track sprayer equipped with 8002E nozzles calibrated to deliver 187 L/ha over an application area of 0.503 square meters (m^2) at a spray height of 18 inches (43 centimeters (cm)) above the average plant canopy. Control plants were sprayed in the same manner with the solvent blank. All pyridine carboxylate herbicide (component a) application rates are given as “g ae/ha” and all MAI herbicide (component b) application rates are given as “g ai/ha.”
(§4) The treated plants and control plants were placed in a greenhouse as described above and watered by sub-irrigation to prevent wash-off of the test compounds. After 20-22 d, the condition of the test plants as compared with that of the control plants was determined visually and scored on a scale of 0 to 100 percent where 0 corresponds to no injury and 100 corresponds to complete kill.

[2] = test system: Chenopodium album L. (common lambsquarters, CHEAL); test: Greenhouse post-emergence herbicidal effect on common lambsquarters
Description: as §1, §2
(§5) The spray solutions were applied to the plant material with an overhead Mandel track sprayer equipped with 8002E nozzles calibrated to deliver 187 L/ha over an application area of 0.503 square meters (m^2) at a spray height of 18 inches (43 centimeters (cm)) above the average plant canopy. […]
as §4

[3] = test system: Lolium multiflorum (Italian ryegrass, LOLMU); test: Greenhouse post-emergence herbicidal effect on Italian ryegrass
Description: as §1, §2, §3, §4

[4] = test system: Echinochloa crus-galli (barnyard grass, ECHCG); test: Greenhouse post-emergence herbicidal effect on barnyard grass
Description: as §1, §2, §3, §4

[5] = test system: Digitaria sanguinalis (large crabgrass, DIGSA); test: Greenhouse post-emergence herbicidal effect on large crabgrass
Description: as §1, §2, §3, §4

[6] = test system: Abutilon theophrasti (velvetleaf, ABUTH); test: Greenhouse post-emergence herbicidal effect on velvetleaf
Description: as §1, §2, §5, §4

[7] = test system: Polygonum convolvulus (wild buckwheat, POLCO); test: Greenhouse post-emergence herbicidal effect on wild buckwheat
Description: as §1, §2, §5, §4

[8] = test system: Cirsium arvense (Canada thistle, CIRAR); test: Greenhouse post-emergence herbicidal effect on Canada thistle
Description: as §1, §2, §3, §4

[9] = test system: Brassica napus (spring rape, BRSNN); test: Greenhouse post-emergence herbicidal effect on spring rape
Description: as §1, §2, §3, §4

[10] = test system: Setaria faberi (giant foxtail, SETFA); test: Greenhouse post-emergence herbicidal effect on giant foxtail
Description: as §1, §2, §3, §4

[11] = test system: Rumex obtusifolius (broad-leaf dock, RUMOB); test: Greenhouse post-emergence herbicidal effect on broad-leaf dock
Description: as §1, §2, §3, §4

[12] = test system: Glycine max (soybean, GLXMA); test: Greenhouse post-emergence herbicidal effect on volunteer soybean
Description: as §1, §2, §3, §4

[13] = test system: Ipomoea hederacea (ivyleaf morningglory, IPOHE); test: Greenhouse post-emergence herbicidal effect on ivyleaf morningglory
Description: as §1, §2, §3, §4

[14] = test system: Kochia scoparia (kochia, KCHSC); test: Greenhouse post-emergence herbicidal effect on kochia
Description: as §1, §2, §3, §4

[15] = MAI herbicide alone, 280 g ai/ha
[16] = MAI herbicide alone, 560 g ai/ha

## CSC(=O)c1c(C(F)F)nc(C(F)(F)F)c(C(=O)SC)c1CC(C)C [Dithiopyr]
[1]; [15]
  Obs (% visual injury): 0%
[2]; [15]
  Obs (% visual injury): 10%
[3]; [15]
  Obs (% visual injury): 0%
[4]; [15]
  Obs (% visual injury): 0%
[5]; [15]
  Obs (% visual injury): 33%
[6]; [15]
  Obs (% visual injury): 40%
[7]; [15]
  Obs (% visual injury): 0%
[8]; [15]
  Obs (% visual injury): 0%
[9]; [15]
  Obs (% visual injury): 58%
[10]; [15]
  Obs (% visual injury): 0%
[11]; [15]
  Obs (% visual injury): 5%
[12]; [15]
  Obs (% visual injury): 13%
[13]; [15]
  Obs (% visual injury): 30%
[14]; [15]
  Obs (% visual injury): 15%

## N#CCOC(=O)c1nc(-c2ccc3cc[nH]c3c2F)c(F)c(N)c1Cl [Compound A, cyanomethyl 4-amino-3-chloro-5-fluoro-6-(7-fluoro-1H-indol-6-yl)pyridine-2-carboxylate]
[1]; Compound A alone, 7.5 g ae/ha
  Obs (% visual injury): 10%
[1]; Compound A alone, 10 g ae/ha
  Obs (% visual injury): 18%
[2]; Compound A alone, 7.5 g ae/ha
  Obs (% visual injury): 97%
[2]; Compound A alone, 10 g ae/ha
  Obs (% visual injury): 93%
[3]; Compound A alone, 7.5 g ae/ha
  Obs (% visual injury): 0%
[3]; Compound A alone, 10 g ae/ha
  Obs (% visual injury): 0%
[4]; Compound A alone, 7.5 g ae/ha
  Obs (% visual injury): 73%
[4]; Compound A alone, 10 g ae/ha
  Obs (% visual injury): 78%
[5]; Compound A alone, 7.5 g ae/ha
  Obs (% visual injury): 45%
[5]; Compound A alone, 10 g ae/ha
  Obs (% visual injury): 25%
[6]; Compound A alone, 7.5 g ae/ha
  Obs (% visual injury): 68%
[6]; Compound A alone, 10 g ae/ha
  Obs (% visual injury): 78%
[7]; Compound A alone, 7.5 g ae/ha
  Obs (% visual injury): 75%
[7]; Compound A alone, 10 g ae/ha
  Obs (% visual injury): 70%
[8]; Compound A alone, 7.5 g ae/ha
  Obs (% visual injury): 23%
[8]; Compound A alone, 10 g ae/ha
  Obs (% visual injury): 20%
[9]; Compound A alone, 7.5 g ae/ha
  Obs (% visual injury): 73%
[9]; Compound A alone, 10 g ae/ha
  Obs (% visual injury): 83%
[10]; Compound A alone, 7.5 g ae/ha
  Obs (% visual injury): 70%
[10]; Compound A alone, 10 g ae/ha
  Obs (% visual injury): 70%
[11]; Compound A alone, 7.5 g ae/ha
  Obs (% visual injury): 8%
[11]; Compound A alone, 10 g ae/ha
  Obs (% visual injury): 10%
[12]; Compound A alone, 7.5 g ae/ha
  Obs (% visual injury): 93%
[12]; Compound A alone, 10 g ae/ha
  Obs (% visual injury): 95%
[13]; Compound A alone, 7.5 g ae/ha
  Obs (% visual injury): 3%
[13]; Compound A alone, 10 g ae/ha
  Obs (% visual injury): 8%
[14]; Compound A alone, 7.5 g ae/ha
  Obs (% visual injury): 60%
[14]; Compound A alone, 10 g ae/ha
  Obs (% visual injury): 65%

## C#CC(C)(C)NC(=O)c1cc(Cl)cc(Cl)c1 [Propyzamide]
[1]; [15]
  Obs (% visual injury): 0%
[2]; [15]
  Obs (% visual injury): 0%
[3]; [15]
  Obs (% visual injury): 0%
[4]; [15]
  Obs (% visual injury): 0%
[5]; [15]
  Obs (% visual injury): 0%
[6]; [15]
  Obs (% visual injury): 5%
[8]; [15]
  Obs (% visual injury): 0%
[9]; [15]
  Obs (% visual injury): 0%
[10]; [15]
  Obs (% visual injury): 0%
[11]; [15]
  Obs (% visual injury): 0%
[12]; [15]
  Obs (% visual injury): 23%
[13]; [15]
  Obs (% visual injury): 3%
[14]; [15]
  Obs (% visual injury): 18%

## CCC(CC)Nc1c([N+](=O)[O-])cc(C)c(C)c1[N+](=O)[O-] [Pendimethalin]
[1]; [16]
  Obs (% visual injury): 0%
[3]; [16]
  Obs (% visual injury): 0%
[4]; [16]
  Obs (% visual injury): 0%
[5]; [16]
  Obs (% visual injury): 15%
[7]; [16]
  Obs (% visual injury): 0%
[8]; [16]
  Obs (% visual injury): 5%
[9]; [16]
  Obs (% visual injury): 15%
[10]; [16]
  Obs (% visual injury): 0%
[11]; [16]
  Obs (% visual injury): 0%
[12]; [16]
  Obs (% visual injury): 23%
[13]; [16]
  Obs (% visual injury): 3%
[14]; [16]
  Obs (% visual injury): 18%
